Where a SMILES comes first, the peptide text is derived from it. Bridges are numbered along the chain shown (N, C = ends). Where no end group is shown, it is not given here. [ ]: non-standard residue; d: D form. S5 = C=CCCC[C@](C)(N)C(=O)O

Assay [1] has as its target T1, RXFP3 (Homo sapiens, UniProt Q9NSD7).
T1 construct: expressed in transfected cells; host or cells: CHO-K1
T1 sequence (Q9NSD7 1-469): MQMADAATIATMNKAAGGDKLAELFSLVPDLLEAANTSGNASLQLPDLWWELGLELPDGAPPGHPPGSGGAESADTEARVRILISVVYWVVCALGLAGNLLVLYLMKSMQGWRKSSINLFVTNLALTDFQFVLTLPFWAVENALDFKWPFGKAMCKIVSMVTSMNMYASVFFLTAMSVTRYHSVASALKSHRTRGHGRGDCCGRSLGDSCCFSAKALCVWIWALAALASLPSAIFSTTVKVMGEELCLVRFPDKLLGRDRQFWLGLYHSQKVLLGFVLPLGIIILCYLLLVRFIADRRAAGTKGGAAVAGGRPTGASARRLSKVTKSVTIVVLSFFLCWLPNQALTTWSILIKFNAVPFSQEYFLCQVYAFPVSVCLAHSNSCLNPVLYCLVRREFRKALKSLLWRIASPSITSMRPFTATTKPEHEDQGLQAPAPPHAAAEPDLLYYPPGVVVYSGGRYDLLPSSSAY
As to the kind of experiment: Competition binding assay with Eu-labelled R3 B1-22R on CHO-K1 cells stably expressing RXFP3. To be noted: SEM; read-out: pKi [logM] (converted). The method, then:
Determination of binding affinity in this study was carried out as previously described. Briefly, CHO-K1 cells stably expressing RXFP3 [38] were treated with 5 nM Eu-labelled R3 B1-22R with increasing concentrations of novel analogues. Fluorescence measurement were recorded with 340 nm excitation and 614 nm emission wavelengths. Assays were conducted in triplicates and independently repeated at least three times. […] Statistical analyses were conducted using 1-way ANOVA with uncorrected Fisher’s least square difference in GraphPad Prism 8.0.
(§1) To determine their binding affinity, the ability of increasing concentration of analogues to compete with europium labelled R3 B1-22R were measured using CHO cells stably expressing RXFP3 [37]. Their potency at RXFP3 was measured by inhibition of cAMP accumulation induced by forskolin, as RXFP3 couples to an inhibitory G-protein.

Assay [2] concerns the target T1, RXFP3. As to the kind of experiment: cAMP activity assay: inhibition of forskolin-induced cAMP accumulation in CHO-K1 cells stably expressing RXFP3. Type of assay: cell-based. To be noted: for EC50: CHO-K1 cells stably expressing RXFP3, inhibition of cAMP accumulation stimulated by 5 μM forskolin, mean ± SEM, triplicates, three independent experiments; for maximum cAMP accumulation inhibition: at the highest concentration tested, CHO-K1 cells expressing RXFP3, forskolin-stimulated (Figure 3). The method, then:
CHO-KI cells stably expressing RXFP3 were used to study the ability of the novel analogues to inhibit forskolin-induced cAMP accumulation. Assays were conducted as previously described. Briefly, 5 μM forskolin was used to stimulate the cells and increasing concentrations of the novel analogues were added to measure the dose-dependent reduction in the cAMP response via activation of the Gi/o-coupled RXFP3. Each analogue was tested in triplicates and each experiment was independently repeated three times. Data are presented as mean ± SEM and were analysed using GraphPad Prism 8.0. Statistical analyses were conducted using 1-way ANOVA and uncorrected Fisher’s least square difference.
as §1
(Changes in cAMP serve as a functional read-out for many G protein-coupled receptors.)

The term EC50 denotes the concentration that produces a half-maximal response. For `CC[C@H](C)[C@@H]1NC(=O)[C@H](Cc2ccccc2)NC(=O)[C@@H](NC(=O)[C@H](CCCNC(=N)N)NC(=O)CNC(=O)[C@H](CO)NC(C)=O)CSCc2cccc(c2)CSC[C@@H](C(=O)N[C@H](C(=O)N[C@H](C(=O)N[C@@H](Cc2ccccc2)C(=O)N[C@H](C(=O)N[C@@H](CO)C(=O)NCC(=O)NCC(=O)N[C@@H](CO)C(=O)N[C@@H](CCCNC(=N)N)C(=O)N[C@@H](Cc2c[nH]c3ccccc23)C(=O)O)[C@@H](C)O)[C@@H](C)CC)C(C)C)NC(=O)[C@H](CCCNC(=N)N)NC1=O` [Analogue 17] (HELM PEPTIDE1{[ac].S.G.R.C.F.I.R.C.V.I.F.T.S.G.G.S.R.W}|CHEM1{[c1cc(C[*:1])cc(C[*:2])c1]}$PEPTIDE1,CHEM1,5:R3-1:R1|PEPTIDE1,CHEM1,9:R3-1:R2$$$V2.0), the Ki on RXFP3 [1] was 1050 nM. On RXFP3 [2] (SEM), this compound had an EC50 of 851 nM.
As to `CC[C@H](C)[C@H](NC(=O)[C@@H](NC(=O)C(C)(C)NC(=O)[C@H](CCCNC(=N)N)NC(=O)[C@@H](NC(=O)C(C)(C)NC(=O)C(C)(C)NC(=O)[C@H](CCCNC(=N)N)NC(=O)CNC(=O)[C@H](CO)NC(C)=O)[C@@H](C)CC)C(C)C)C(=O)N[C@@H](Cc1ccccc1)C(=O)N[C@H](C(=O)N[C@@H](CO)C(=O)NCC(=O)NCC(=O)N[C@@H](CO)C(=O)N[C@@H](CCCNC(=N)N)C(=O)N[C@@H](Cc1c[nH]c2ccccc12)C(=O)O)[C@@H](C)O` [Analogue 2] (HELM PEPTIDE1{[ac].S.G.R.[Aib].[Aib].I.R.[Aib].V.I.F.T.S.G.G.S.R.W}$$$$V2.0), the Ki at RXFP3 [1] is 1480 nM. Moreover, at RXFP3 [2] (SEM), the EC50 was 550 nM.
Take `CC[C@H](C)[C@@H]1NC(=O)[C@H](Cc2ccccc2)NC(=O)[C@@](C)(NC(=O)[C@H](CCCNC(=N)N)NC(=O)CNC(=O)[C@H](CO)NC(C)=O)CCCC=CCCC[C@@](C)(C(=O)N[C@H](C(=O)N[C@H](C(=O)N[C@@H](Cc2ccccc2)C(=O)N[C@H](C(=O)N[C@@H](CO)C(=O)NCC(=O)NCC(=O)N[C@@H](CO)C(=O)N[C@@H](CCCNC(=N)N)C(=O)N[C@@H](Cc2c[nH]c3ccccc23)C(=O)O)[C@@H](C)O)[C@@H](C)CC)C(C)C)NC(=O)[C@H](CCCNC(=N)N)NC1=O` [Ac-R3B10-27 [13/17 HC], reference compound] (Ac-SGR[S5]FIR[S5]VIFTSGGSRW-OH; staple 4-8): at RXFP3 [1], the Ki was 41.7 nM.
Still for that read-out and setting: under “RAAPYGVRLSGREFIRAVIFTSGGSRW [H3 B-chain, reference compound]” stands 1230 nM.
Regarding `CC[C@H](C)[C@H](NC(=O)[C@H](Cc1ccccc1)NC(=O)C(C)(C)NC(=O)[C@H](CCCNC(=N)N)NC(=O)CNC(=O)[C@@H](N)CO)C(=O)N[C@@H](CCCNC(=N)N)C(=O)NC(C)(C)C(=O)N[C@H](C(=O)N[C@H](C(=O)N[C@@H](Cc1ccccc1)C(=O)N[C@H](C(=O)NC(C)(C)C(=O)NCC(=O)NCC(=O)N[C@@H](CO)C(=O)N[C@@H](CCCNC(=N)N)C(=O)N[C@@H](Cc1c[nH]c2ccccc12)C(=O)O)[C@@H](C)O)[C@@H](C)CC)C(C)C` [Analogue 7] (HELM PEPTIDE1{S.G.R.[Aib].F.I.R.[Aib].V.I.F.T.[Aib].G.G.S.R.W}$$$$V2.0), the Ki at RXFP3 [1] is 1120 nM. Besides, on RXFP3 [2], the EC50 was over 10000 nM and the “maximum cAMP accumulation inhibition” value is on record as ~ 50%.
With `CC[C@H](C)[C@H](NC(=O)[C@H](Cc1ccccc1)NC(=O)C(C)(C)NC(=O)[C@H](CCCNC(=N)N)NC(=O)CNC(=O)[C@H](CO)NC(C)=O)C(=O)N[C@@H](CCCNC(=N)N)C(=O)NC(C)(C)C(=O)N[C@H](C(=O)N[C@H](C(=O)N[C@@H](Cc1ccccc1)C(=O)NC(C)(C)C(=O)N[C@@H](CO)C(=O)NCC(=O)NCC(=O)N[C@@H](CO)C(=O)N[C@@H](CCCNC(=N)N)C(=O)N[C@@H](Cc1c[nH]c2ccccc12)C(=O)O)[C@@H](C)CC)C(C)C` [Analogue 6] (HELM PEPTIDE1{[ac].S.G.R.[Aib].F.I.R.[Aib].V.I.F.[Aib].S.G.G.S.R.W}$$$$V2.0), at RXFP3 [1], the Ki is 1700 nM. This compound also gave an EC50 on RXFP3 [2] (SEM) of 1860 nM.
In the same order, the values of `CC[C@H](C)[C@@H]1NC(=O)[C@H](Cc2ccccc2)NC(=O)[C@@](C)(NC(=O)[C@H](CCCNC(=N)N)NC(=O)CNC(=O)[C@H](CO)NC(=O)[C@H](CCCCN)NC(=O)[C@H](CCCCN)NC(=O)[C@H](CCCCN)NC(=O)[C@@H](N)CCCCN)CCCC=CCCC[C@@](C)(C(=O)N[C@H](C(=O)N[C@H](C(=O)N[C@@H](Cc2ccccc2)C(=O)N[C@H](C(=O)N[C@@H](CO)C(=O)NCC(=O)NCC(=O)N[C@@H](CO)C(=O)N[C@@H](CCCNC(=N)N)C(=O)N[C@@H](Cc2c[nH]c3ccccc23)C(=O)O)[C@@H](C)O)[C@@H](C)CC)C(C)C)NC(=O)[C@H](CCCNC(=N)N)NC1=O` [Analogue 12] (H-KKKKSGR[S5]FIR[S5]VIFTSGGSRW-OH; staple 8-12) are 182 nM and 6.46 nM.
Take `CC[C@H](C)[C@H](NC(=O)[C@H](Cc1ccccc1)NC(=O)C(C)(C)NC(=O)[C@H](CCCNC(=N)N)NC(=O)CNC(=O)[C@H](CO)NC(C)=O)C(=O)N[C@@H](CCCNC(=N)N)C(=O)NC(C)(C)C(=O)N[C@H](C(=O)N[C@H](C(=O)N[C@@H](Cc1ccccc1)C(=O)N[C@H](C(=O)NC(C)(C)C(=O)NCC(=O)NCC(=O)N[C@@H](CO)C(=O)N[C@@H](CCCNC(=N)N)C(=O)N[C@@H](Cc1c[nH]c2ccccc12)C(=O)O)[C@@H](C)O)[C@@H](C)CC)C(C)C` [Analogue 8] (HELM PEPTIDE1{[ac].S.G.R.[Aib].F.I.R.[Aib].V.I.F.T.[Aib].G.G.S.R.W}$$$$V2.0): the Ki on RXFP3 [1] was 955 nM. Besides, on RXFP3 [2], the EC50 is over 10000 nM and the “maximum cAMP accumulation inhibition” value is ~ 50%.
With `CC[C@H](C)[C@@H]1NC(=O)[C@H](Cc2ccccc2)NC(=O)[C@@H](NC(=O)[C@H](CCCNC(=N)N)NC(=O)CNC(=O)[C@@H](N)CO)CSCc2cccc(c2)CSC[C@@H](C(=O)N[C@H](C(=O)N[C@H](C(=O)N[C@@H](Cc2ccccc2)C(=O)N[C@H](C(=O)N[C@@H](CO)C(=O)NCC(=O)NCC(=O)N[C@@H](CO)C(=O)N[C@@H](CCCNC(=N)N)C(=O)N[C@@H](Cc2c[nH]c3ccccc23)C(=O)O)[C@@H](C)O)[C@@H](C)CC)C(C)C)NC(=O)[C@H](CCCNC(=N)N)NC1=O` [Analogue 16] (HELM PEPTIDE1{S.G.R.C.F.I.R.C.V.I.F.T.S.G.G.S.R.W}|CHEM1{[c1cc(C[*:1])cc(C[*:2])c1]}$PEPTIDE1,CHEM1,4:R3-1:R1|PEPTIDE1,CHEM1,8:R3-1:R2$$$V2.0), the Ki on RXFP3 [1] was 1000 nM. The compound also gave an EC50 at RXFP3 [2] (SEM) of 1050 nM.
Take `CC[C@H](C)[C@H](NC(=O)[C@H](Cc1ccccc1)NC(=O)C(C)(C)NC(=O)[C@H](CCCNC(=N)N)NC(=O)CNC(=O)[C@@H](N)CO)C(=O)N[C@@H](CCCNC(=N)N)C(=O)NC(C)(C)C(=O)NC(C)(C)C(=O)N[C@H](C(=O)N[C@@H](Cc1ccccc1)C(=O)N[C@H](C(=O)N[C@@H](CO)C(=O)NCC(=O)NCC(=O)N[C@@H](CO)C(=O)N[C@@H](CCCNC(=N)N)C(=O)N[C@@H](Cc1c[nH]c2ccccc12)C(=O)O)[C@@H](C)O)[C@@H](C)CC` [Analogue 3] (HELM PEPTIDE1{S.G.R.[Aib].F.I.R.[Aib].[Aib].I.F.T.S.G.G.S.R.W}$$$$V2.0): on RXFP3 [2] (SEM), a half-maximal effect (EC50) was put at 91.2 nM.
Consider `CC[C@H](C)[C@H](NC(=O)[C@H](Cc1ccccc1)NC(=O)C(C)(C)NC(=O)[C@H](CCCNC(=N)N)NC(=O)CNC(=O)[C@@H](N)CO)C(=O)N[C@@H](CCCNC(=N)N)C(=O)NC(C)(C)C(=O)N[C@H](C(=O)N[C@H](C(=O)N[C@@H](Cc1ccccc1)C(=O)NC(C)(C)C(=O)N[C@@H](CO)C(=O)NCC(=O)NCC(=O)N[C@@H](CO)C(=O)N[C@@H](CCCNC(=N)N)C(=O)N[C@@H](Cc1c[nH]c2ccccc12)C(=O)O)[C@@H](C)CC)C(C)C` [Analogue 5] (HELM PEPTIDE1{S.G.R.[Aib].F.I.R.[Aib].V.I.F.[Aib].S.G.G.S.R.W}$$$$V2.0), for which, at RXFP3 [2], the midpoint of the response, the EC50, lay at 1020 nM.

The record behind these values is paper PMC7602263, “Exploring the Use of Helicogenic Amino Acids for Optimising Single Chain Relaxin-3 Peptide Agonists” (Biomedicines, 2020).
